The test system of one test is MDA-MB-361. Briefly: Antitumor activity against human MDA-MB-361 cells assessed as tumor growth inhibition. It counts as functional, cell-based.
Test [1] can be described thus: Inhibition of mesenchymal transformation in human A549 cells assessed as inhibition rate relative to control. It is filed as functional.
For another test, the system named is T47D. Briefly: Antiproliferative activity against human T47D cells. It counts as functional, cell-based.
Test [2] in a line: Antimigratory activity against human LX2 cells assessed as inhibition rate relative to control. It is filed as functional, LX-2.
Test [3] is described as follows: Antiviral activity against DENV2 infected in human HeLa cells incubated for 1 hrs by plaque assay. It counts as functional, cell-based, dengue virus type 2. To be noted: Dengue virus.
The next test deals with MCF7. In words: Cytotoxicity against human MCF7 cells. It is filed as functional, cell-based.
Another test relates to MDA-MB-231. In words: Antitumor activity against human MDA-MB-231 cells assessed as tumor growth inhibition. It counts as functional, cell-based.
Another test has as its system Chikungunya virus. Briefly: Antiviral activity against Chikungunya virus. It is filed as functional, organism-based.
A short description of test [4]: Antiviral activity against DENV2 infected in human HepG2 cells incubated for 1 hrs by plaque assay. To be noted: Dengue virus, HepG2, 1 h. It counts as functional, cell-based, dengue virus type 2.
The next test has as its system Staphylococcus aureus. In words: Antibacterial activity against Staphylococcus aureus MTCC 96 assessed as bacterial growth inhibition by broth micro-dilution assay. It counts as functional.
A further test relates to BT-549. In words: Antiproliferative activity against human BT-549 cells. It is filed as functional, cell-based.
The next test has as its system HCT-116. In words: Antiproliferative activity against human HCT-116 cells assessed as cell growth inhibition measured after 48 hrs by MTT assay. Conditions: HCT-116, 48 h. It counts as functional, cell-based. On the technique in general: Formazan colour is commonly taken as a measure of viable cells.
The next test relates to HK-2. In words: Antiproliferative activity against human HK-2 cells. It is filed as functional, cell-based.
For the next test, the system named is enterovirus D68. In words: Antiviral activity against Enterovirus D68 infected in human RD cells assessed as inhibition of viral replication measured after 48 hrs by qRT-PCR analysis. It is filed as functional, organism-based. To be noted: Enterovirus D.
The test system of the next test is Rattus norvegicus. In words: Anti-inflammatory activity against egg white-induced paw edema in rat model assessed as detumescence rate measured after 6 hrs relative to control. It counts as functional.
Test [5] can be described thus: Antimigratory activity against human Cardiac fibroblast cells assessed as inhibition rate relative to control. It is filed as functional.
In another test the test system is KBM5. Briefly: Antiproliferative activity against human KBM5 cells assessed as reduction in cell viability by MTT assay. It is filed as functional, cell-based.
For a further test, the system named is K562. Briefly: Antiproliferative activity against human K562 cells assessed as reduction in cell viability by MTT assay. It is filed as functional, cell-based.
The test system of test [6] is Human immunodeficiency virus. Briefly: Antiviral activity against HIV infected in human C8166 cells. It counts as functional, organism-based.
A short description of test [7]: Antiviral activity against HIV infected in human MT2 cells. It is filed as functional, cell-based. To be noted: Human immunodeficiency virus 1, MT2.

Molecules are shown by their SMILES. In brackets after ≈: the same amount, converted by molar mass. Several values for one entry are separate records, joined by “and”; a condition that tells them apart may be missing. Identical values can stand only once.

The source of these data is ChEMBL document CHEMBL5236551, “Andrographolide and its derivatives: Current achievements and future perspectives” (Eur J Med Chem, 2021).

One may read the IC50 as the concentration needed to halve the response being measured. A word on the MIC: it is the least concentration at which growth counts as inhibited. Regarding `C=C1CC[C@@H]2[C@](C)(CO)[C@H](O)CC[C@@]2(C)[C@@H]1C/C=C1/C(=O)OC[C@H]1O` [ANDROGRAPHOLIDE], the IC50 in the test with MDA-MB-361 is 31.5 µM; with T47D it was 32.4 µM; in test [3], 23 µM; in the test on MCF7, 35.1 µM; in the test with MDA-MB-231 it was 20.3 µM; with Chikungunya virus it was 0.6 µM. The IC50 is 21 µM in [4]; 23.2 µM with BT-549; 31.8 µM in the test with HCT-116; 30.6 µM in the test on HK-2; 3.45 µM with enterovirus D68; 8.5 µM in the test on KBM5. In addition, the IC50 is 23.7 µM in the test with K562; 7.9 µM and 2.32 µM in [6]; 140 µM in test [7]. For the same compound, the “inhibition (INH)” value in test [1] is given as 55%; in test [2] it was 15%; in the test with Rattus norvegicus, 74.42%; in test [5] it was 35%. Further, the MIC with Staphylococcus aureus is 100 µg/mL (≈ 285 µM).
